Experimental data: paper PMC12030277, “Is Copper-61 the New Gallium-68? Automation and Preclinical Proof-of-Concept of ^61Cu-Based Radiopharmaceuticals for Prostate Cancer Imaging” (Pharmaceuticals, 2025)

Tests used:
[1] = system: DU145 (PSMA-negative) cells; test: In vitro uptake assay, DU145 cells; format: cell-based, human; settings: 0.5 nM, 37 °C, up to 2 h, N = 2–5 in duplicate
Method: (§1) The human PCa cell lines LNCaP (PSMA-positive) (American Type Culture Collection (ATCC), CRL-1740; Manassas, VA, USA) and DU145 (PSMA-negative) (kindly provided by Dr. Carmen Jerónimo Lab at IPO-Porto) were maintained at 37 °C in a humidified incubator enriched with 5% carbon dioxide. The cells were grown in Roswell Park Memorial Institute (RPMI) 1640 medium (Sigma-Aldrich, R4130; St. Louis, MI, USA) supplemented with 0.2% (w/v) sodium bicarbonate (Sigma-Aldrich, S6297), 10% heat-inactivated fetal bovine serum (FBS; Gibco, A5256801; Grand Island, NY, USA), 1 mM sodium pyruvate (Gibco, 11360-070), and 1% antibiotic-antimycotic (Anti-Anti 100X, Gibco, 15240-062). LNCaP and DU145 cells were seeded in 12-well plates (0.3 × 10^6 cells/well/mL) 48 h before the experiments and the day before, respectively. The multiwell plates used for the LNCaP cell line were previously coated with poly-l-lysine (PLL, Innoprot; Bizcaia, Spain) for 4–6 h to prevent cell detachment during the assays. Both PSMA-positive and -negative cells were incubated with 0.5 nM of ^61Cu-radiopharmaceuticals at 37 °C for different time periods up to 2 h. […] The radioactivity of both the supernatant and cellular fraction was measured in a CRC-55tW gamma-well counter (Mirion Technologies; Atlanta, GA, USA). Cellular uptake was calculated as a percentage of the total radioactivity measured for each well. […]

[2] = system: PSMA-positive tumor xenografts (LNCaP); set-up: species or system mice; settings: mouse, in vivo
Method: Animal studies were approved by the Animal Welfare Committee of the Institute of Nuclear Sciences Applied to Health (ICNAS; ORBEA 01-2018) and the Portuguese National Authority for Animal Health (DGAV). Male athymic Swiss nude mice aged 9-12 weeks (34–36 g) were supplied by ICNAS, housed under pathogen-free conditions in individually ventilated cages with controlled temperature/humidity (22 °C/55%) environment on a 12 h light–dark cycle, and provided with food and water ad libitum. […] Tumor growth was monitored with a digital caliper and PET/MRI scans were performed when tumor xenografts reached 5–7 mm in diameter (~75–130 mm^3, as calculated by the formula Length × Width^2 × 0.5), approximately 9 weeks after inoculation.
[^61Cu]Cu-DOTAGA-PSMA-I&T (~0.37 MBq/g; ~3.56 nmol; N = 2) or [^61Cu]Cu-NODAGA-PSMA-I&T (~0.37 MBq/g; ~0.653 nmol; N = 3) in NaCl 0.9% with 10% EtOH was intravenously injected into the tail vein of anesthetized mice. […] Respiratory rate and body temperature were monitored throughout the imaging procedures (SA Instruments, Inc.; Stony Brook, NY, USA). […] For quantitative PET imaging processing, PMOD v3.6 and FUSION Tool (PMOD Technologies; Zürich, Switzerland; RRID:SCR_016547) were used to delineate volumes of interest (VOIs) on the PET images co-registered with the respective MRI. […] Uptake values were expressed as percentage of injected dose per gram of tissue (% ID/g).

[3] = set-up: species or system mice; settings: mouse
[4] = system: LNCaP (PSMA-positive) cells; test: In vitro uptake assay, LNCaP cells; format: cell-based, human; settings: 0.5 nM, 37 °C, up to 2 h, later time points; % of total radioactivity per well, gamma counter; mean ± SEM, N = 2–5 in duplicate
Method: as §1

Molecule | cellular uptake in DU145 cells [1] | clearance route [2] | in vivo stability [3] | maximum cellular uptake in LNCaP cells [4] [%]
O=C(O)CC[C@H](NC(=O)N[C@@H](CCCCNC(=O)CCCCCCC(=O)NCCCC[C@@H](NC(=O)[C@@H](Cc1ccccc1)NC(=O)[C@@H](Cc1ccc(O)c(I)c1)NC(=O)CCC(C(=O)O)N1CCN(CC(=O)O)CCN(CC(=O)O)CC1)C(=O)O)C(=O)O)C(=O)O (stereo partly shown) [[^61Cu]Cu-NODAGA-PSMA-I&T, metal not drawn] | remained at basal levels | clearance predominantly through the renal pathway | remarkable in vivo metabolic stability | 13.16 ± 0.15
[^61Cu]Cu-DOTAGA-PSMA-I&T | remained at basal levels | – | poor kinetic stability in vivo | 14.09 ± 0.84
